{"source": "patent US20260306527A1", "about": "“PRMT INHIBITOR COMPOUNDS AND THE USES THEREOF” (Purdue Research Foundation, priority 2023, published 2026)", "key": {"PRMT8 [1]": {"target": "T1, PRMT8 (Homo sapiens, UniProt Q9NR22)", "T1 sequence (Q9NR22 whole entry, species assumed)": "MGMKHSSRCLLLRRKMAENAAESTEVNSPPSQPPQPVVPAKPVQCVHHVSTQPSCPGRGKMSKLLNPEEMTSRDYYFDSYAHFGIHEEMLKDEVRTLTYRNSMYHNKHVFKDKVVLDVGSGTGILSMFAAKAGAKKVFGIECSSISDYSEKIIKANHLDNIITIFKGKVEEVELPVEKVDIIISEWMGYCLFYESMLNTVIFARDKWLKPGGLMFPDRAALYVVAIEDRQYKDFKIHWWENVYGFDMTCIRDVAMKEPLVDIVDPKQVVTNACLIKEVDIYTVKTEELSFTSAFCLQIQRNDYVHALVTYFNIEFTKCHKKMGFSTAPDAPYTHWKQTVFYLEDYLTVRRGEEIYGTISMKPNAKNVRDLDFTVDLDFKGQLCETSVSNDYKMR", "test": "radioactive assay (Reaction Biology Corp.), inhibition of PRMT8", "assay_type": "biochemical", "experimental": "Next, the inhibition activity of the library was investigated for five PRMT members from type I PRMTs.\nThe PRMT 4, 6 and 8 methylation assays were performed by Reaction Biology corp."}, "PRMT1 [2]": {"target": "T2, PRMT1 (Homo sapiens, UniProt Q99873)", "T2 construct": "made in house", "T2 sequence (Q99873 whole entry, species assumed)": "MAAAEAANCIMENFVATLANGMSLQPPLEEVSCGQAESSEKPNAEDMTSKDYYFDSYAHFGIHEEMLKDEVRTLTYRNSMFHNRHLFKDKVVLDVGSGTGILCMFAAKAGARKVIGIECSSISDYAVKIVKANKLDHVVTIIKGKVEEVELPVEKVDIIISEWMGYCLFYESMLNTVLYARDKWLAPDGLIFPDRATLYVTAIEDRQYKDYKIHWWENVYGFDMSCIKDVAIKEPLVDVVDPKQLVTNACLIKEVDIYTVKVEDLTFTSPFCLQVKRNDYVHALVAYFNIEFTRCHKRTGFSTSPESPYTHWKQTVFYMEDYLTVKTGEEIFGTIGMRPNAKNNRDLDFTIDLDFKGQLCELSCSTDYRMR", "test": "selectivity of YD1113/YD1290 on PRMT panel, PRMT1", "assay_type": "biochemical", "conditions": "10 μM; PRMT panel", "experimental": "(§1) The selectivity of compounds YD1113 and YD1290 on PRMTs were performed by Reaction Biology Corp.\n(§2) Next, the selectivity of YD1113 was investigated on a panel of PRMTs at 10 μM.\n(§3) After validating the benzyl urea moiety as an unconventional homocysteine mimic of SAH for PRMTs, it was hypothesized that incorporating the benzyl urea moiety into the original pan PRMT inhibitor II757 would build a potent bisubstrate inhibitor. […] To enable a stable tri-substitution, the sulfur atom with a nitrogen atom was replaced. YD1290 was synthesized following the reported methods 9, 15 and tested in a radioactivity assay for PRMTs (FIG. 6b)."}, "PRMT3 [3]": {"target": "T3, PRMT3 (Homo sapiens, UniProt O60678)", "test": "selectivity of YD1113/YD1290 on PRMT panel, PRMT3", "assay_type": "biochemical", "experimental": "as §1, §2, §3"}, "PRMT5": {"target": "PRMT5 (Homo sapiens, UniProt O14744)", "sequence (O14744 whole entry, species assumed)": "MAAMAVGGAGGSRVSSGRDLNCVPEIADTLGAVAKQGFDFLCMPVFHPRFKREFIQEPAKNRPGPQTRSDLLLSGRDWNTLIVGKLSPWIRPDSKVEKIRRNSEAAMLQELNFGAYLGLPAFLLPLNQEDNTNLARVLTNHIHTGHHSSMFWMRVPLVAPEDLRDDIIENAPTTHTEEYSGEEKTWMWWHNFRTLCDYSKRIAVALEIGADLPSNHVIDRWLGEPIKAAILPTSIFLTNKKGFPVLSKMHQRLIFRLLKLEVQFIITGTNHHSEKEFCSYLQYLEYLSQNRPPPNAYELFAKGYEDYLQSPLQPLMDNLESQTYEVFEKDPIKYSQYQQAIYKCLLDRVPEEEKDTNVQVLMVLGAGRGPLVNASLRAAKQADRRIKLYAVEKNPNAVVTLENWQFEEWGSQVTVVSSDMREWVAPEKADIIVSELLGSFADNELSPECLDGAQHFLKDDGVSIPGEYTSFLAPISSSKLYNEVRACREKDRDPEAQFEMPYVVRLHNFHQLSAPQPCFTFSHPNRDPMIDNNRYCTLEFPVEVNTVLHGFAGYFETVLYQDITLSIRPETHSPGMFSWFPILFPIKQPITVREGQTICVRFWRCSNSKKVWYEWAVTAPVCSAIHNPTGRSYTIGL", "sequence (Q9BQA1 whole entry partner, species assumed)": "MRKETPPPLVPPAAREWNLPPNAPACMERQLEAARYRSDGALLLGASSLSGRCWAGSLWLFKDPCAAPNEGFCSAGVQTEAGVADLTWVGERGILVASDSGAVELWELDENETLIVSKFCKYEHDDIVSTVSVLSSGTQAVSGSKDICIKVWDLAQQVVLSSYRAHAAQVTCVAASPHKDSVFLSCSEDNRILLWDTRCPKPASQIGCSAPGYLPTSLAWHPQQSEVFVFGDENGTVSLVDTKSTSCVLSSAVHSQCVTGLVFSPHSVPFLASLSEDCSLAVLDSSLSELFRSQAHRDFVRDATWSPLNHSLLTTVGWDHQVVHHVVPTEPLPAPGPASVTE", "test": "selectivity of YD1113 on PRMT panel, PRMT5", "assay_type": "biochemical", "conditions": "read-out: IC50 value PRMT5", "experimental": "as §1, §2"}, "PRMT6": {"target": "PRMT6 (Homo sapiens, UniProt Q96LA8)", "sequence (Q96LA8 whole entry, species assumed)": "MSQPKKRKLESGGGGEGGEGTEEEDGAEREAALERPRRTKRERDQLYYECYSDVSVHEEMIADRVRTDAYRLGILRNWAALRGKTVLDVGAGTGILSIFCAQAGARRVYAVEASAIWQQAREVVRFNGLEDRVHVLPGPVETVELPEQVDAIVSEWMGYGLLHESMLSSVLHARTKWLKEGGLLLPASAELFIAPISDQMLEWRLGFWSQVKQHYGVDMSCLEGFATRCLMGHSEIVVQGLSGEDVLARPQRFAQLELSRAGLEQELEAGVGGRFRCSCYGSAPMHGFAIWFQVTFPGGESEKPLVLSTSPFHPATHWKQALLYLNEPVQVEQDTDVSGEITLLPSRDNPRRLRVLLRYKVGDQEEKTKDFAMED", "test": "selectivity of YD1113/YD1290 on PRMT panel, PRMT6", "assay_type": "biochemical", "conditions": "10 μM; PRMT panel", "experimental": "as §1, §2, §3"}, "PRMT8 [4]": {"target": "T1, PRMT8", "test": "selectivity of YD1113/YD1290 on PRMT panel, PRMT8", "assay_type": "biochemical", "conditions": "10 μM; PRMT panel", "experimental": "as §1, §2, §3"}, "PRMT1 [5]": {"target": "T2, PRMT1", "test": "thermal shift assay PRMT1", "assay_type": "binding", "conditions": "100 μM compound, 10 μM protein", "experimental": "(§4) The fluorescence-based thermal shift assay was performed using a StepOne plus qPCR instrument (Thermal Fisher). For PRMT1, 10 μM of protein was mixed with 2× sypro orange and DMSO, or 100 μM SAM, or 100 μM YD1113, or 100 μM YD1290 in a buffer consisting of 2.5 mM HEPES (pH=7.0), 25 mM NaCl, 25 μM EDTA, 50 μM TCEP, 0.01% Triton X-100. For PRMT3, 20 μM of protein was mixed with 2× sypro orange and DMSO, or 100 μM SAM, or 100 μM YD1113, or 100 μM YD1290 in a buffer consisting of 20 mM Tris (pH=7.5), 0.01% Triton X-100. For PRMT4, 20 μM of protein was mixed with 2× sypro orange and DMSO, or 100 μM SAM, or 100 μM YD1113, or 100 μM YD1290 in a buffer consisting of 20 mM bicine (pH=8.5), 0.01% Triton X-100. All samples were heated from 25° C. to 75° C. at an increased rate of 0.5° C. per minute. Protein denaturation was monitored by the increased fluorescence signal of Sypro Orange, which captures exposed hydrophobic residues during thermal unfolding. The recorded curves were analyzed by the software StepOne plus and plotted in GraphPad Prism 8 software.\n(§5) Next, the thermal shift assay (TSA) was conducted as an orthogonal method to examine the effects of YD1290 on the thermal stability of PRMT1, 3, and 4 (Figure S1)."}, "PRMT4": {"target": "T4, PRMT4 (Homo sapiens, UniProt Q86X55)", "T4 construct": "PRMT4 (residues 140-480) was cloned into the pFBOH-MHL vector; tag of the pFBOH-MHL vector (poly-His implied by Ni-NTA purification; not described); made in house; host or cells: Sf9 insect cells", "T4 sequence (Q86X55 140-480)": "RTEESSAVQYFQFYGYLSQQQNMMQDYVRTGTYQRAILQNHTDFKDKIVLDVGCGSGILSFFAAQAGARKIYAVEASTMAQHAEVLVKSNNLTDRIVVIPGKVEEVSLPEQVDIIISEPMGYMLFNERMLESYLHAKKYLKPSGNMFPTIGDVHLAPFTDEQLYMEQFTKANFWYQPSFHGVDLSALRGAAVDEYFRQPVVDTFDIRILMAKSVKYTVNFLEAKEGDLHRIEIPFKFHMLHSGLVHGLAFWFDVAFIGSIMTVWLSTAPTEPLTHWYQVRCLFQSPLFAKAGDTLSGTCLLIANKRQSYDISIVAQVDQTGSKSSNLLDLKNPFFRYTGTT", "test": "thermal shift assay PRMT4", "assay_type": "binding", "conditions": "100 μM compound, 20 μM protein", "experimental": "as §4, §5"}, "PRMT3 [6]": {"target": "T3, PRMT3", "test": "SAHH-coupled fluorescence assay, inhibition of PRMT3", "assay_type": "biochemical", "design": "PRMT3 (residues 211-531) was cloned into the pET28a-MHL expression vector; tag of the pET28a-MHL vector (not described); made in house; host or cells: Escherichia coli BL21(DE3)", "method_in_brief": "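Coupled SAHH/ThioGlo4 fluorescence read-out (ex 380 nm, em 505 nm) of PRMT3 (0.25 μM) methylation with 30 μM AdoMet and 5 μM SAHH. Buffer was 20 mM Tris pH 7.5 with 0.01% Triton X-100. Run in duplicate.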"}, "PRMT3 [7]": {"target": "T3, PRMT3", "test": "thermal shift assay PRMT3", "assay_type": "binding", "design": "PRMT3 (residues 211-531) was cloned into the pET28a-MHL expression vector; tag of the pET28a-MHL vector (not described); made in house; host or cells: Escherichia coli BL21(DE3)", "conditions": "100 μM compound, 20 μM protein", "experimental": "as §4, §5"}}}
{"smiles": "Nc1ncnc2c1ncn2[C@@H]1O[C@H](CSCCNC(=O)NCc2ccccc2)[C@@H](O)[C@H]1O", "note": "[Compound 7a, 1-(2-((((2S,3S,4R,5R)-5-(6-amino-9H-purin-9-yl)-3,4-dihydroxytetrahydrofuran-2-yl)methyl)thio)ethyl)-3-benzylurea]", "values": [{"measurement": "inhibition at 10 µM", "setting": "PRMT8 [1]", "value": 12, "unit": "%"}, {"measurement": "inhibition at 10 µM", "setting": "PRMT1 [2]", "value": "< 35", "unit": "%"}, {"measurement": "IC50", "setting": "PRMT3 [3]", "value": 321, "unit": "nM"}, {"measurement": "IC50", "setting": "PRMT5", "value": 351, "unit": "nM"}, {"measurement": "inhibition at 10 µM", "setting": "PRMT6", "value": "< 35", "unit": "%"}, {"measurement": "inhibition at 10 µM", "setting": "PRMT8 [4]", "value": "< 35", "unit": "%"}, {"measurement": "ΔTm at 100 µM", "setting": "PRMT1 [5]", "value": 0.6, "unit": "°C"}, {"measurement": "ΔTm at 100 µM", "setting": "PRMT4", "value": 2.6, "unit": "°C"}, {"measurement": "inhibition at 10 µM", "setting": "PRMT3 [6]", "value": 80, "unit": "%"}, {"measurement": "ΔTm at 100 µM", "setting": "PRMT3 [7]", "value": 5.8, "unit": "°C"}]}
